Key:
RET oncogenic mutants = settings: cellular systems; cited from earlier work
RET-driven models = settings: several RET-driven models; cited from earlier work
[1] = system: NSCLC patients with RET-alterations; settings: Subbiah et al. 2018; cited from earlier work
[2] = system: RET, ERK1/2 and AKT phosphorylation in PC9^CCDC6-RET cells; test: Western blot of downstream signaling; format: cell-based; settings: 6 hours
Method: FIG. 4A is a western blot for PC9^EV and PC9^CCDC6-RET cells treated with 100 nM afatinib, 1 μM osimertinib, Compound 1, or combinations thereof for 6 hours and harvested for western blotting with the antibodies.
FIG. 5A is a western blot for PC^9V and PC9^CCDC6-RET cells treated with 100 nM afatinib, 1 μM osimertinib, cabozanitinib, or combinations thereof for 6 hours and harvested for western blot analysis.
(§1) Afatinib, osimertinib, and cabozantinib were purchased from Selleck Chemicals and resuspended in DMSO. Phospho-EGFR (Y1068), EGFR, pBRAF (Ser445), RET, pAKT (Ser473), AKT, pMEK1/2 (Ser217/221), MEK1/2, pERK1/2 (Thr202/204), ERK1/2, and Actin antibodies were purchased from Cell Signaling Technology. pRET (Y1062) antibody was obtained from Abcam.

[3] = system: MGH134 parental cells (EV); test: Cell proliferation (CellTiter-Glo); format: cell-based; settings: 1 μM osimertinib, over five days
PC9 parental cells (EV) = test: Cell proliferation (CellTiter-Glo); format: cell-based; settings: 1 μM osimertinib, over five days
[4] = system: PC9^CCDC6-RET cells (EGFR del19); test: Cell proliferation / viability (CellTiter-Glo); format: cell-based
Method: (§2) PC9 and MGH134 cells expressing the CCDC6-RET gene fusion or empty vector (EV) were treated with 1 μM osimertinib or vehicle (VEH) and cell proliferation determined over the course of five days (ratio compared to the beginning of treatment). Data shown are the mean±s.e.m. of three independent biological replicates.
(§3) Data are shown as a percentage of vehicle treated control and are the mean±s.e.m of three independent biological replicates.
as §3
(§4) For drug dose-response assays, cells were seeded into 96-well plates 24 hours before addition of drug. Cell proliferation was determined by CellTiter-Glo assay (Promega) 72-120 hours after adding drug, using standard protocols. For time-course experiments, multiple plates were seeded and drugged in identical fashion, and at the indicated time points, the plates were frozen at −80° C.; all plates in an experiment were developed with CellTiter-Glo simultaneously. Luminescence was measured with SpectraMax i3x Multi-Mode Microplate Reader (Molecular Devices).
(§5) To determine whether CCDC6-RET expression is sufficient to cause acquired drug resistance, CCDC6-RET fusion expressing cell line models were generated by lentiviral infection of PC9 (EGFR del19) and MGH134 (EGFR L858R/T790M) cells (FIG. 2).

[5] = system: RET, ERK1/2 and AKT phosphorylation in MGH134^CCDC6-RET cells; test: Western blot of downstream signaling; format: cell-based; settings: EGFR inhibitor alone (1 μM osimertinib), 6 hours
Method: FIG. 4B is a western blot for MGH134^EV and MGH134^CCDC6-RET cells treated with 1 μM osimertinib, cabozantinib, and Compound 1 or combinations thereof for 6 hours and harvested for western blotting with the indicated antibodies.
as §1

[6] = system: MGH134^CCDC6-RET cells (EGFR L858R/T790M)
Method: as §2, §3, §4, §5

[7] = 1 μM osimertinib, over five days

Q: Which results are given for `CO[C@]1(C(=O)N[C@@H](C)c2ccc(-n3cc(F)cn3)nc2)CC[C@H](c2nc(C)cc(Nc3cc(C)[nH]n3)n2)CC1` [Compound 1, (1S,4R)—N—((S)-1-(6-(4-fluoro-1H-pyrazol-1-yl)pyridine-3-yl)ethyl)-1-methoxy-4-(4-methyl-6-((5-methyl-1H-pyrazol-3-yl)amino)pyrimidin-2-yl)cyclohexanecarboxamide]?
A: potency of inhibition of kinase activity (RET oncogenic mutants): low nanomolar potency; antitumor efficacy (RET-driven models): dose-dependent antitumor efficacy; clinical responses [1]: durable clinical responses; off-target toxicity [1]: without notable off-target toxicity; RET phosphorylation ([2]; Compound 1 alone): suppressed; downstream ERK or AKT phosphorylation ([2]; Compound 1 alone): did not decrease

Q: Which cell proliferation [3] does the source give for `C=CC(=O)Nc1cc(Nc2nccc(-c3cn(C)c4ccccc34)n2)c(OC)cc1N(C)CCN(C)C` [osimertinib] here?
A: The cell proliferation was “net decrease in cell viability”.

Q: And the cell proliferation (PC9 parental cells (EV))?
A: Its cell proliferation is “net decrease in cell viability”.

Q: And the proliferation rate ([4]; 1 μM osimertinib vs vehicle)?
A: Its proliferation rate is “decreased”.

Q: What about the cell proliferation [4, 7] of the same compound?
A: Its cell proliferation is “continued to proliferate”.

Q: And the “RET, ERK1/2, and AKT phosphorylation” value [5]?
A: The value was “retained”.

Q: What about the proliferation rate ([6]; 1 μM osimertinib vs vehicle) of the same compound?
A: The proliferation rate was “decreased”.

Q: And the cell proliferation [6, 7]?
A: The cell proliferation was “continued to proliferate”.

Q: What about the “RET, ERK1/2, and AKT phosphorylation” value ([2]; 100 nM afatinib or 1 μM osimertinib alone) of the same compound?
A: Its value is “retained”.

From US20210308134A1, “TREATMENT OF EGFR-MUTANT CANCER” (BLUEPRINT MEDICINES CORPORATION, priority 2018, published 2021)
